In ChEMBL document CHEMBL1156997, “4,7-Dichloro benzothien-2-yl sulfonylaminomethyl boronic acid: first boronic acid-derived beta-lactamase inhibitor with class A, C, and D activity” (Bioorg Med Chem Lett, 2010):

Key:
[1] = molecular target: Beta-lactamase (Pseudomonas aeruginosa (strain ATCC 15692 / PAO1 / 1C / PRS 101 / LMG12228)) (UniProt P24735); assay: Inhibition of Pseudomonas aeruginosa beta-lactamase AmpC at 2 uM
[2] = Inhibition of Pseudomonas aeruginosa beta-lactamase TEM-1
[3] = molecular target: Beta-lactamase SHV-5 (Klebsiella pneumoniae, UniProt P0A3M1); assay: Inhibition of Klebsiella pneumoniae beta-lactamase SHV5
Sequence of Beta-lactamase SHV-5 (P0A3M1 whole entry): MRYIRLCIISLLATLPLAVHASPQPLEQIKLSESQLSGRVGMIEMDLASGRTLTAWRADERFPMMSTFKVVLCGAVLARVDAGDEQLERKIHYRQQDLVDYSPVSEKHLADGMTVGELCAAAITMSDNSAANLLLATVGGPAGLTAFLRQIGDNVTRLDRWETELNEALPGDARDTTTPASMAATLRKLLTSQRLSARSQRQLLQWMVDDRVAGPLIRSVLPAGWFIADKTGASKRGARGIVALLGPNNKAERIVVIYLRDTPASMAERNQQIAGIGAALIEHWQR

[4] = molecular target: Beta-lactamase (Pseudomonas aeruginosa (strain ATCC 15692 / PAO1 / 1C / PRS 101 / LMG12228), UniProt P24735); assay: Inhibition of Pseudomonas aeruginosa beta-lactamase AmpC
Sequence of Beta-lactamase (Pseudomonas aeruginosa (strain ATCC 15692 / PAO1 / 1C / PRS 101 / LMG12228), UniProt P24735) (P24735 whole entry): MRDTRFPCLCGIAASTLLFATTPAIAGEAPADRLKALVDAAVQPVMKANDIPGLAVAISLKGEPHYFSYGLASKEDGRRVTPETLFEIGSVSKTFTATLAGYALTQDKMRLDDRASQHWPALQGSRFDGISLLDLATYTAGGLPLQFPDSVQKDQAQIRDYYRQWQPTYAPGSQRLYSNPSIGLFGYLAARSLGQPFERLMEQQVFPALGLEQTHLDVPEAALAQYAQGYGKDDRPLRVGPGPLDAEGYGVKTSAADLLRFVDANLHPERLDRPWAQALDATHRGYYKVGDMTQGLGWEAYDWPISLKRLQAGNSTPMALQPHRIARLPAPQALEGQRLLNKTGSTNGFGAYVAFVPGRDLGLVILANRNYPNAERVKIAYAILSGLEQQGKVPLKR

[5] = molecular target: Beta-lactamase (Enterobacter cloacae, UniProt P05364); assay: Inhibition of Enterobacter colacae P99 Beta-lactamase
Sequence of Beta-lactamase (Enterobacter cloacae, UniProt P05364) (P05364 whole entry): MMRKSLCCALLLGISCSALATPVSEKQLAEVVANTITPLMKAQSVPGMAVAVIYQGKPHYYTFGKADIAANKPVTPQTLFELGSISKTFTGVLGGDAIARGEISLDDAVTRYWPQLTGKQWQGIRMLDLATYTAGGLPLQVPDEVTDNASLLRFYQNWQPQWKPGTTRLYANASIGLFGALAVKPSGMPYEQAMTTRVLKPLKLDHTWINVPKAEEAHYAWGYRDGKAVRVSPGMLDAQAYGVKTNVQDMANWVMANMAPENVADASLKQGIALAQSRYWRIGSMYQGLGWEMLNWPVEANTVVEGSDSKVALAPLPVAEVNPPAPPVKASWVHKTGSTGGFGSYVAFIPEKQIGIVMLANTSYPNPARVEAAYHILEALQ

[6] = molecular target: Beta-lactamase (Acinetobacter baumannii, UniProt Q8RLA6); assay: Inhibition of Acinetobacter baumannii beta-lactamase OXA40
Sequence of Beta-lactamase (Acinetobacter baumannii, UniProt Q8RLA6) (Q8RLA6 whole entry): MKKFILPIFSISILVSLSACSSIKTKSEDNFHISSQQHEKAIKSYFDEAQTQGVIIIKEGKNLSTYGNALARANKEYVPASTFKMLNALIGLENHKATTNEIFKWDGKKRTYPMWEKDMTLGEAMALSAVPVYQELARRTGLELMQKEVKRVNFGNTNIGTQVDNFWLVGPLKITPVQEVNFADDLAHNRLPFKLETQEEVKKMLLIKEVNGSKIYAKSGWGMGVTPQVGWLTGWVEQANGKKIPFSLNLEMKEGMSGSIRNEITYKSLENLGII

[7] = molecular target: Beta-lactamase (Pseudomonas aeruginosa (strain ATCC 15692 / PAO1 / 1C / PRS 101 / LMG12228)) (UniProt P24735); assay: Inhibition of Pseudomonas aeruginosa beta-lactamase AmpC at 0.8 uM

Sequence of Beta-lactamase (Pseudomonas aeruginosa (strain ATCC 15692 / PAO1 / 1C / PRS 101 / LMG12228)) (P24735 27-397 limits assumed): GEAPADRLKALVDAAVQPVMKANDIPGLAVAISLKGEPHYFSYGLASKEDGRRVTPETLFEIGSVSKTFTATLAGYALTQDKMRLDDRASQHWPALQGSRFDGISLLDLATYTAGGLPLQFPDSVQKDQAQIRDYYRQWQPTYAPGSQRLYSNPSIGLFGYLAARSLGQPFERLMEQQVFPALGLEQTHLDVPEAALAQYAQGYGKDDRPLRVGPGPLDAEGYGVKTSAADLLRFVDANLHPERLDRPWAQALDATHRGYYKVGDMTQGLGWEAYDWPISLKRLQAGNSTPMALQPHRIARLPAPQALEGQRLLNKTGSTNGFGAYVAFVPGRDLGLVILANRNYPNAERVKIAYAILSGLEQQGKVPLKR

SMILES: N#Cc1cc(Br)cc(S(=O)(=O)NCC(=O)O)c1
- inhibition [1]: 4%

SMILES: O=C(O)CNS(=O)(=O)c1ccc(CCCCC2CCNCC2)cc1
- inhibition [1]: 18%

SMILES: CN(CC(=O)O)S(=O)(=O)c1ccc(N)cc1
- inhibition [1]: -10%

SMILES: O=C(CC(=O)C(F)(F)F)c1ccccc1
- inhibition [1]: 18%

SMILES: CC(C(=O)c1cccs1)C(=O)C(F)(F)F (configuration not stated)
- inhibition [1]: 11%

SMILES: O=S(=O)(NCB(O)O)c1cc2c(Cl)ccc(Cl)c2s1
- IC50 [2]: 1.1 µM
- IC50 [3]: 0.57 µM
- IC50 [4]: 1.2 µM
- IC50 [5]: 0.62 µM
- IC50 [6]: 5.6 µM

SMILES: CC(C(=O)c1ccccc1)C(=O)C(F)(F)F (configuration not stated)
- inhibition [1]: 11%

SMILES: O=S(=O)(NCB(O)O)c1ccccc1
- inhibition [7]: 29%

SMILES: O=C(O)C1CCN1S(=O)(=O)c1cc(Cl)cc(Cl)c1 (configuration not stated)
- inhibition [1]: 9%

SMILES: O=C(O)C1CCCN1S(=O)(=O)c1ccccc1 (configuration not stated)
- inhibition [1]: 18%

SMILES: O=C(CC(=O)C(F)(F)F)c1ccco1
- inhibition [1]: 14%

SMILES: O=C(CC(=O)C(F)(F)F)c1cccnc1
- inhibition [1]: 19%

SMILES: O=C(O)C1CCN1S(=O)(=O)c1cccnc1 (configuration not stated)
- inhibition [1]: 5%
